Source: ChEMBL document CHEMBL1275549, “A new tetracycline efflux gene, tet(40), is located in tandem with tet(O/32/O) in a human gut firmicute bacterium and in metagenomic library clones” (Antimicrob Agents Chemother, 2008)
≈ marks a conversion by molar mass, not a printed value.

Tests used:
[1] = tested on: Escherichia coli; assay: Antibacterial activity against Escherichia coli EPI300 harboring plasmid GEM-T expressing tet(40) gene after 16 hrs; type: functional, organism-based; details: EPI300, 16 h
[2] = tested on: Escherichia coli; assay: Antibacterial activity against Escherichia coli EPI300 expressing tet(40) gene assessed as bacterial growth at 80 ug/ml after 18 hrs in presence of 2.5 ug/ml efflux pump inhibitor […]
[3] = tested on: Escherichia coli; assay: Antibacterial activity against Escherichia coli EPI300 expressing tet(W) gene assessed as bacterial growth at 60 ug/ml after 18 hrs in presence of 2.5 ug/ml efflux pump inhibitor CCCP
[4] = tested on: Escherichia coli; assay: Antibacterial activity against Escherichia coli EPI300 expressing tet(40) gene assessed as bacterial growth at 60 ug/ml after 18 hrs in presence of 2.5 ug/ml efflux pump inhibitor CCCP
[5] = tested on: Escherichia coli; assay: Antibacterial activity against Escherichia coli EPI300 expressing tet(W) gene assessed as inhibition of bacterial growth at 40 ug/ml after 18 hrs in presence of 2.5 ug/ml efflux pump inhibitor CCCP; values are per cent of control
[6] = tested on: Escherichia coli; assay: Antibacterial activity against Escherichia coli EPI300 expressing tet(W) gene assessed as inhibition of bacterial growth at 80 ug/ml after 18 hrs in presence of 2.5 ug/ml efflux pump inhibitor CCCP; values are per cent of control
[7] = tested on: Escherichia coli; assay: Antibacterial activity against Escherichia coli EPI300 expressing tet(40) gene assessed as inhibition of bacterial growth at 40 ug/ml after 18 hrs in presence of 2.5 ug/ml efflux pump inhibitor CCCP; values are per cent of control

With `CN(C)[C@@H]1C(O)=C(C(N)=O)C(=O)[C@@]2(O)C(O)=C3C(=O)c4c(O)cccc4[C@@](C)(O)[C@H]3C[C@@H]12` [TETRACYCLINE] as the compound, how does the IC50 [1] read?
Its IC50 is 60 µg/mL (≈ 135 µM).

What about the “growth, % of control” value [2] of the same compound?
Its value is 16.5%.

And the “growth, % of control” value [3]?
The value was 99.2%.

What about the “growth, % of control” value [4] of the same compound?
Its value is 53.4%.

What about the “growth, % of control” value [5] of the same compound?
The value was 96.4%.

What about the “growth, % of control” value [6] of the same compound?
The value was 75.4%.

What about the “growth, % of control” value [7] of the same compound?
Its value is 56.5%.
